Assays:
[1] = target: T1, Gal4-RORγ-LBD (Homo sapiens, UniProt P51449); assay: Gal4-RORγ Luciferase Reporter Assay in HEK-293T Cells; assay type: cell-based; settings: HEK-293 cells, luciferase reporter, with 2 μM ursolic acid
T1 construct: expressed in transfected cells; host or cells: HEK-293 cells (pcDNA3.1neo plasmid)
T1 sequence (P51449 269-508 limits assumed): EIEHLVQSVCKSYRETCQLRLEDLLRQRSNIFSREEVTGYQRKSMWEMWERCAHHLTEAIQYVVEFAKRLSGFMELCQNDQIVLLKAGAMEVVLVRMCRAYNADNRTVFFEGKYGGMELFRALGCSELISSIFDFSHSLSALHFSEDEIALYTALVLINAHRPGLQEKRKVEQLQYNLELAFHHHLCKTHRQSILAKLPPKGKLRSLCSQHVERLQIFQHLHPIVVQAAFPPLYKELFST
Method in brief: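 HEK-293 cells were transiently co-transfected with Gal4-RORγ-LBD and pGL4.31 Gal4-luciferase, with ursolic acid added at 2 μM final. Compounds were incubated overnight at 37° C. in 0.2% DMSO and luminescence read with One-Glo. Max Response is the upper plateau of a 4-parameter logistic fit, with signal lacking ursolic acid or compound set to 100.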

[2] = target: T2, RORγ-LBD (Homo sapiens, UniProt P51449); assay: RORγ-Ligand Binding Domain (LBD) TR-FRET Assay; assay type: biochemical;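 as to TR-FRET Assay Max Response: 665/615 nm ratio relative to signal without ursolic acid or compound set at 100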
T2 construct: made in house; host or cells: SF9 cells (baculovirus)
T2 sequence (P51449 269-508 limits assumed): T1 sequence (P51449 269-508 limits assumed)
Method in brief: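 His-tagged RORγ-LBD from SF9 baculovirus lysate, ~3 nM final, in 50 mM Tris pH 7.0, 50 mM KCl, 1 mM EDTA, 0.1 mM DTT, 0.01% BSA. Biotinylated SRC1 LXXLL peptide at 200 nM final with 2 μM ursolic acid; TR-FRET read-out, 1% DMSO final.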

In the case of `O=C(O)CC[C@H]1CN(S(=O)(=O)c2cccc(C(F)(F)F)c2)c2cc(-c3ccccc3Cl)ccc2O1` [Compound 2A, (S)-3-(6-(2-chlorophenyl)-4-((3-(trifluoromethyl)phenyl)-sulfonyl)-3,4-dihydro-2H-benzo[b][1,4]oxazin-2-yl)propanoic acid], the EC50 [1] is reported as less than 500 nM, the “Gal4-RORγ Assay Max Response” value [1] is reported as “** (The symbol “**” indicates a value in the range of greater than 90 to 150)” and the EC50 [2] is reported as less than 500 nM. For the same molecule, the “TR-FRET Assay Max Response” value [2] was “*** (The symbol “***” indicates a value in the range of greater than 150 to 200)”.
In the case of `O=C(O)CC[C@H]1CN(S(=O)(=O)c2cccc(C(F)(F)F)c2)c2cc(-c3ccnc(C(F)(F)F)c3)ccc2O1` [Compound 2AA, (S)-3-(4-((3-(trifluoromethyl)-phenyl)sulfonyl)-6-(2-(trifluoromethyl)pyridin-4-yl)-3,4-dihydro-2H-benzo[b][1,4]oxazin-2-yl)propanoic acid], the EC50 [1] is reported as greater than 10000 nM, the EC50 [2] is reported as less than 500 nM and the “TR-FRET Assay Max Response” value [2] is reported as “**** (The symbol “****” indicates a value greater than 200)”.
For `O=C(O)CC[C@H]1CN(S(=O)(=O)c2cccc(C(F)(F)F)c2)c2cc(-c3ccc(Cl)cc3Cl)ccc2O1` [Compound 2AB, (S)-3-(6-(2,4-dichlorophenyl)-4-((3-(trifluoromethyl)phenyl)-sulfonyl)-3,4-dihydro-2H-benzo[b][1,4]oxazin-2-yl)propanoic acid], the EC50 [1] was greater than 10000 nM, the “Gal4-RORγ Assay Max Response” value [1] was “** (The symbol “**” indicates a value in the range of greater than 90 to 150)” and the EC50 [2] was less than 500 nM. For the same molecule, the “TR-FRET Assay Max Response” value [2] was “**** (The symbol “****” indicates a value greater than 200)”.
For `COc1c(Cl)cccc1-c1ccc2c(c1)N(S(=O)(=O)c1cccc(C(F)(F)F)c1)C[C@H](CCC(=O)O)O2` [Compound 2AC, (S)-3-(6-(3-chloro-2-methoxy-phenyl)-4-((3-(trifluoromethyl)-phenyl)sulfonyl)-3,4-dihydro-2H-benzo[b][1,4]oxazin-2-yl)propanoic acid], the EC50 [1] was less than 500 nM, the “Gal4-RORγ Assay Max Response” value [1] was “*** (The symbol “***” indicates a value in the range of greater than 150 to 200)” and the EC50 [2] was less than 500 nM. For the same molecule, the “TR-FRET Assay Max Response” value [2] was “**** (The symbol “****” indicates a value greater than 200)”.
With `O=C(O)CC[C@H]1CN(S(=O)(=O)c2cccc(C(F)(F)F)c2)c2cc(-c3cc(F)ccc3F)ccc2O1` [Compound 2AD, (S)-3-(6-(2,5-difluorophenyl)-4-((3-(trifluoromethyl)-phenyl)sulfonyl)-3,4-dihydro-2H-benzo[b][1,4]oxazin-2-yl)propanoic acid] the EC50 [1] was less than 500 nM, the “Gal4-RORγ Assay Max Response” value [1] was “*** (The symbol “***” indicates a value in the range of greater than 150 to 200)” and the EC50 [2] was less than 500 nM. For the same molecule, the “TR-FRET Assay Max Response” value [2] was “**** (The symbol “****” indicates a value greater than 200)”.
In the case of `O=C(O)CC[C@H]1CN(S(=O)(=O)c2cccc(C(F)(F)F)c2)c2cc(-c3cc(F)cc(C(F)(F)F)c3)ccc2O1` [Compound 2AE, (S)-3-(6-(3-fluoro-5-(trifluoromethyl)phenyl)-4-((3-(trifluoromethyl)phenyl)-sulfonyl)-3,4-dihydro-2H-benzo[b][1,4]oxazin-2-yl)propanoic acid], the EC50 [1] is reported as less than 500 nM, the “Gal4-RORγ Assay Max Response” value [1] is reported as “*** (The symbol “***” indicates a value in the range of greater than 150 to 200)” and the EC50 [2] is reported as less than 500 nM. The “TR-FRET Assay Max Response” value [2] was “**** (The symbol “****” indicates a value greater than 200)”.
With `O=C(O)CC[C@H]1CN(S(=O)(=O)c2cccc(C(F)(F)F)c2)c2cc(-c3ccc(F)c(C(F)(F)F)c3)ccc2O1` [Compound 2AF, (S)-3-(6-(4-fluoro-3-(trifluoromethyl)phenyl)-4-((3-(trifluoromethyl)phenyl)-sulfonyl)-3,4-dihydro-2H-benzo[b][1,4]oxazin-2-yl)propanoic acid] the EC50 [1] was greater than 10000 nM, the EC50 [2] was less than 500 nM and the “TR-FRET Assay Max Response” value [2] was “**** (The symbol “****” indicates a value greater than 200)”.
`O=C(O)CC[C@H]1CN(S(=O)(=O)c2cccc(C(F)(F)F)c2)c2cc(-c3c(F)cccc3Cl)ccc2O1` [Compound 2AG, (S)-3-(6-(2-chloro-6-fluoro-phenyl)-4-((3-(trifluoromethyl)-phenyl)sulfonyl)-3,4-dihydro-2H-benzo[b][1,4]oxazin-2-yl)propanoic acid] was tested, and the EC50 [1] was less than 500 nM, the “Gal4-RORγ Assay Max Response” value [1] was “*** (The symbol “***” indicates a value in the range of greater than 150 to 200)” and the EC50 [2] was less than 500 nM. The “TR-FRET Assay Max Response” value [2] was “**** (The symbol “****” indicates a value greater than 200)”.
In the case of `O=C(O)CC[C@H]1CN(S(=O)(=O)c2cccc(C(F)(F)F)c2)c2cc(-c3cccc(F)c3Cl)ccc2O1` [Compound 2AH, (S)-3-(6-(2-chloro-3-fluoro-phenyl)-4-((3-(trifluoromethyl)-phenyl)sulfonyl)-3,4-dihydro-2H-benzo[b][1,4]oxazin-2-yl)propanoic acid], the EC50 [1] is reported as less than 500 nM, the “Gal4-RORγ Assay Max Response” value [1] is reported as “*** (The symbol “***” indicates a value in the range of greater than 150 to 200)” and the EC50 [2] is reported as less than 500 nM. The “TR-FRET Assay Max Response” value [2] was “**** (The symbol “****” indicates a value greater than 200)”.
With `O=C(O)CC[C@H]1CN(S(=O)(=O)c2cccc(C(F)(F)F)c2)c2cc(-c3cc(F)ccc3Cl)ccc2O1` [Compound 2AI, (S)-3-(6-(2-chloro-5-fluoro-phenyl)-4-((3-(trifluoromethyl)-phenyl)sulfonyl)-3,4-dihydro-2H-benzo[b][1,4]oxazin-2-yl)propanoic acid] the “Gal4-RORγ Assay Max Response” value [1] was “** (The symbol “**” indicates a value in the range of greater than 90 to 150)”, the EC50 [2] was less than 500 nM and the “TR-FRET Assay Max Response” value [2] was “**** (The symbol “****” indicates a value greater than 200)”.
For `CC(C)c1ccccc1-c1ccc2c(c1)N(S(=O)(=O)c1cccc(C(F)(F)F)c1)C[C@H](CCC(=O)O)O2` [Compound 2AJ, (S)-3-(6-(2-isopropylphenyl)-4-((3-(trifluoromethyl)phenyl)-sulfonyl)-3,4-dihydro-2H-benzo[b][1,4]oxazin-2-yl)propanoic acid], the EC50 [1] was less than 500 nM, the “Gal4-RORγ Assay Max Response” value [1] was “** (The symbol “**” indicates a value in the range of greater than 90 to 150)” and the EC50 [2] was less than 500 nM. For the same molecule, the “TR-FRET Assay Max Response” value [2] was “**** (The symbol “****” indicates a value greater than 200)”.
In the case of `O=C(O)CC[C@H]1CN(S(=O)(=O)c2cccc(C(F)(F)F)c2)c2cc(-c3cncc(C(F)(F)F)c3)ccc2O1` [Compound 2AK, (S)-3-(4-((3-(trifluoromethyl)-phenyl)sulfonyl)-6-(5-(trifluoromethyl)pyridin-3-yl)-3,4-dihydro-2H-benzo[b][1,4]oxazin-2-yl)propanoic acid], the EC50 [1] is reported as less than 500 nM, the “Gal4-RORγ Assay Max Response” value [1] is reported as “** (The symbol “**” indicates a value in the range of greater than 90 to 150)” and the EC50 [2] is reported as less than 500 nM. For the same molecule, the “TR-FRET Assay Max Response” value [2] was “**** (The symbol “****” indicates a value greater than 200)”.
In the case of `O=C(O)CC[C@H]1CN(S(=O)(=O)c2cccc(C(F)(F)F)c2)c2cc(-c3cccc(Cl)c3Cl)ccc2O1` [Compound 2AL, (S)-3-(6-(2,3-dichlorophenyl)-4-((3-(trifluoromethyl)phenyl)-sulfonyl)-3,4-dihydro-2H-benzo[b][1,4]oxazin-2-yl)propanoic acid], the EC50 [1] is reported as less than 500 nM, the “Gal4-RORγ Assay Max Response” value [1] is reported as “*** (The symbol “***” indicates a value in the range of greater than 150 to 200)” and the EC50 [2] is reported as less than 500 nM. For the same molecule, the “TR-FRET Assay Max Response” value [2] was “**** (The symbol “****” indicates a value greater than 200)”.
Work on `O=C(O)CC[C@H]1CN(S(=O)(=O)c2cccc(C(F)(F)F)c2)c2cc(-c3cc(Cl)ccc3Cl)ccc2O1` [Compound 2AM, (S)-3-(6-(2,5-dichlorophenyl)-4-((3-(trifluoromethyl)phenyl)-sulfonyl)-3,4-dihydro-2H-benzo[b][1,4]oxazin-2-yl)propanoic acid] yielded an EC50 [1] of less than 500 nM and an EC50 [2] of less than 500 nM.
With `COc1ccc(-c2ccc3c(c2)N(S(=O)(=O)c2cccc(C(F)(F)F)c2)C[C@H](CCC(=O)O)O3)cc1Cl` [Compound 2AN, (S)-3-(6-(3-chloro-4-methoxyphenyl)-4-((3-(trifluoromethyl)phenyl)-sulfonyl)-3,4-dihydro-2H-benzo[b][1,4]oxazin-2-yl)propanoic acid] the EC50 [1] was less than 500 nM, the “Gal4-RORγ Assay Max Response” value [1] was “** (The symbol “**” indicates a value in the range of greater than 90 to 150)” and the EC50 [2] was less than 500 nM. For the same molecule, the “TR-FRET Assay Max Response” value [2] was “**** (The symbol “****” indicates a value greater than 200)”.
`COc1cc(Cl)cc(-c2ccc3c(c2)N(S(=O)(=O)c2cccc(C(F)(F)F)c2)C[C@H](CCC(=O)O)O3)c1` [Compound 2AO, (S)-3-(6-(3-chloro-5-methoxyphenyl)-4-((3-(trifluoromethyl)phenyl)-sulfonyl)-3,4-dihydro-2H-benzo[b][1,4]oxazin-2-yl)propanoic acid] was tested, and the EC50 [1] was less than 500 nM, the “Gal4-RORγ Assay Max Response” value [1] was “*** (The symbol “***” indicates a value in the range of greater than 150 to 200)” and the EC50 [2] was less than 500 nM. The “TR-FRET Assay Max Response” value [2] was “**** (The symbol “****” indicates a value greater than 200)”.
`O=C(O)CC[C@H]1CN(S(=O)(=O)c2cccc(C(F)(F)F)c2)c2cc(-c3cccc(OC(F)(F)F)c3)ccc2O1` [Compound 2AP, (S)-3-(6-(3-(trifluoromethoxy)-phenyl)-4-((3-(trifluoromethyl)-phenyl)sulfonyl)-3,4-dihydro-2H-benzo[b][1,4]oxazin-2-yl)propanoic acid] was tested, and the EC50 [1] was less than 500 nM, the “Gal4-RORγ Assay Max Response” value [1] was “** (The symbol “**” indicates a value in the range of greater than 90 to 150)” and the EC50 [2] was less than 500 nM. For the same molecule, the “TR-FRET Assay Max Response” value [2] was “**** (The symbol “****” indicates a value greater than 200)”.

Reference: patent publication US10611740B2, “Aryl dihydro-2H-benzo[b][1,4]oxazine sulfonamide and related compounds for use as agonists of RORγ and the treatment of disease” (Lycera Corporation, priority 2015, dated 2020)
